The assay in a line: In vitro inhibitory activity against E2F-1/Cyclin A was determined using ELISA assay. A general note: An ELISA detects its analyte on a solid surface through an enzyme-linked reagent.

Residues, ends and D or L forms follow the SMILES beside them. *: point of attachment. Cyclohexanecarbonyl = O=C(C1CCCCC1)*; Cyclopentanecarbonyl = O=C(C1CCCC1)*; Cyclopropanecarbonyl = O=C(C1CC1)*; Isobutyryl = CC(C)C(=O)*; Piv = CC(C)(C)C(=O)*; Propionyl = CCC(=O)*; Bz = O=C(c1ccccc1)*

Consider 19 compounds from ChEMBL document CHEMBL1133952, “Identification of E2F-1/Cyclin A antagonists” (Bioorg Med Chem Lett, 2001).

By IC50 is commonly meant the point on the concentration scale where inhibition reaches its midpoint. A lower IC50 goes with inhibition by little substance. On to `CC(C)C[C@H](NC(=O)[C@H](CCCCN)NC(=O)[C@H](CCCN=C(N)N)NC(=O)[C@H](CCCCN)NC(=O)C1CCCC1)C(=O)N[C@@H](Cc1ccccc1)C(=O)NCC(=O)O` (Cyclopentanecarbonyl-KRKLFG-OH), for which 350 nM corresponded to half-maximal inhibition (IC50).
The value for `CC(C)C[C@H](NC(=O)[C@H](CCCCN)NC(=O)[C@H](CCCN=C(N)N)NC(=O)[C@H](CCCCN)NC(=O)C(C)C)C(=O)N[C@@H](Cc1ccccc1)C(=O)NCC(=O)O` (Isobutyryl-KRKLFG-OH) was 150 nM; that for `CC(=O)N[C@@H](CCCCN)C(=O)N[C@@H](CC(C)C)C(=O)N[C@@H](Cc1ccccc1)C(=O)NCC(=O)O` (Ac-KLFG-OH) was 45000 nM.
In turn, `CC(C)C[C@H](NC(=O)[C@H](CCCCN)NC(=O)[C@H](CCCN=C(N)N)NC(=O)[C@H](CCCCN)NC(=O)C1CCCCC1)C(=O)N[C@@H](Cc1ccccc1)C(=O)NCC(=O)O` (Cyclohexanecarbonyl-KRKLFG-OH) came in with an IC50 of 450 nM.
Then `CC(C)C[C@H](NC(=O)[C@H](CCCCN)NC(=O)[C@H](CCCN=C(N)N)NC(=O)[C@H](CCCCN)NC(=O)C(C)(C)C)C(=O)N[C@@H](Cc1ccccc1)C(=O)NCC(=O)O` (Piv-KRKLFG-OH), with 150 nM.
The value for `CC(=O)N1CCC[C@H]1C(=O)N[C@H](C(=O)N[C@@H](CCCCN)C(=O)N[C@@H](CCCN=C(N)N)C(=O)N[C@@H](CCCCN)C(=O)N[C@@H](CC(C)C)C(=O)N[C@H](Cc1ccccc1)C(=O)NCC(=O)O)C(C)C` was 250 nM; that for `CC(=O)N[C@@H](CCCN=C(N)N)C(=O)N[C@@H](CCCCN)C(=O)N[C@@H](CC(C)C)C(=O)N[C@@H](Cc1ccccc1)C(=O)NCC(=O)O` was 30000 nM.
The compound `CC(C)C[C@H](NC(=O)[C@H](CCCCN)NC(=O)[C@H](CCCN=C(N)N)NC(=O)[C@H](CCCCN)NC(=O)C1CC1)C(=O)N[C@@H](Cc1ccccc1)C(=O)NCC(=O)O` (Cyclopropanecarbonyl-KRKLFG-OH) gave an IC50 of 150 nM.
The value for Ac-AKRKLFG-OH was 200 nM; that for `CCC(=O)N[C@@H](CCCCN)C(=O)N[C@@H](CCCN=C(N)N)C(=O)N[C@@H](CCCCN)C(=O)N[C@@H](CC(C)C)C(=O)N[C@@H](Cc1ccccc1)C(=O)NCC(=O)O` (Propionyl-KRKLFG-OH) was 450 nM; that for H-PVKARADL-OH was greater than 100000 nM.
The value for `CC(C)C[C@H](NC(=O)[C@H](CC(N)=O)NC(=O)[C@H](CCCN=C(N)N)NC(=O)C(CS)NC(=O)[C@H](C)NC(=O)C(N)CO)C(=O)N[C@@H](Cc1ccccc1)C(=O)NCC(=O)O` (single isomer, unassigned) was 200 nM; that for Ac-KRKLFG-OH was 1000 nM; that for `CC(=O)N1CCC[C@H]1C(=O)N[C@H](C(=O)N[C@@H](CCCCN)C(=O)N[C@@H](CCCN=C(N)N)C(=O)N[C@H](CCCCN)C(=O)N[C@@H](CC(C)C)C(=O)N[C@@H](Cc1ccccc1)C(=O)NCC(=O)O)C(C)C` was 5000 nM.
`CC(=O)N1CCC[C@H]1C(=O)N[C@H](C(=O)N[C@@H](CCCCN)C(=O)N[C@H](CCCN=C(N)N)C(=O)N[C@@H](CCCCN)C(=O)N[C@@H](CC(C)C)C(=O)N[C@@H](Cc1ccccc1)C(=O)NCC(=O)O)C(C)C` gave an IC50 of 45000 nM.
Regarding `CC(C)C[C@H](NC(=O)[C@H](CCCCN)NC(=O)[C@H](CCCN=C(N)N)NC(=O)[C@H](CCCCN)NC(=O)c1ccccc1)C(=O)N[C@@H](Cc1ccccc1)C(=O)NCC(=O)O` (Bz-KRKLFG-OH), the IC50 amounted to 1500 nM.
As for `CC(=O)N1CCC[C@H]1C(=O)N[C@H](C(=O)N[C@@H](CCCCN)C(=O)N[C@@H](CCCN=C(N)N)C(=O)N[C@@H](CCCCN)C(=O)N[C@@H](CC(C)C)C(=O)N[C@@H](Cc1ccccc1)C(=O)NCC(=O)O)C(C)C`, half-maximal inhibition (IC50) was put at 100 nM.
`CC(C)C[C@H](NC(=O)[C@H](CC(=O)O)NC(=O)[C@H](CC(C)C)NC(=O)[C@H](CCCN=C(N)N)NC(=O)[C@H](CCCN=C(N)N)NC(=O)[C@H](CCCCN)NC(=O)[C@@H](NC(=O)[C@@H]1CCCN1)C(C)C)C(=O)O` gave an IC50 of 100 nM.
With H-PAKRKLFG-OH, it took 100 nM to reach half-maximal inhibition (IC50).
